From BindingDB's records for doi:10.1021/jm00053a012 (Washington University, 1993)

Target: calcium-independent phospholipase A2 (Canis familiaris)
Assay: Compounds were evaluated for the inhibitory activity against canine myocardial cytosolic calcium-independent phospholipase A2.

| IC50 [nM] | SMILES |
| --- | --- |
| 30 | O=C1O/C(=C/I)CCC1c1cccc2ccccc12 (configuration not stated) [(E)-6-Iodomethylene-3-naphthalen-1-yl-tetrahydro-pyran-2-one] |
| 190 | O=C1O/C(=C\I)CCC1c1cccc2ccccc12 (configuration not stated) [(Z)-6-(iodomethylene)-3-(naphthalen-1-yl)tetrahydro-2H-pyran-2-one] |
